Article doi:10.1101/810010v1 (biorxiv, 2019)

Molecular target: Syt1 C2B (Mus musculus, UniProt P46096)
Test: […]-1H HSQC NMR titration, global fit of chemical shifts, single-site model
Format: binding

Chain of Syt1 C2B (P46096 271-421): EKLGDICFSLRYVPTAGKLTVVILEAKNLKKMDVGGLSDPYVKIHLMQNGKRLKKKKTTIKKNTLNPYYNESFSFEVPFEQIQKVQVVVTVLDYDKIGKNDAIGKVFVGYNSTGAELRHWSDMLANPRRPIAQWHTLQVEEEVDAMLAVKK

`CCCC(=O)OC[C@H](COP(=O)(O)O[C@@H]1[C@H](O)[C@H](O)[C@@H](OP(=O)(O)O)[C@H](OP(=O)(O)O)[C@H]1O)OC(=O)CCC` [di-C4-PtdIns(4,5)P2] was tested, and the Kd was 215 ± 16 µM.
